Measurements taken from US11186606B2, “Compositions and methods of modulating the immune response by activating alpha protein kinase 1” (Shanghai Yao Yuan Biotechnology Co., Ltd., priority 2017, dated 2021).

System: CT26 cells
Test: CT26 tumor xenograft model, tumor volume
Format: in vivo, BALB/c mice
Procedure: We used a CT26 tumor xenograft model to test the anti-cancer activity of H1b-ADP. Tumor cells (2×10^5 per 100 uL CT26 cells) were inoculated subcutaneously into the right flank of BALB/c mice. At day 6, mice whose tumors had reached 3-5 mm in diameter were randomized and grouped into three groups (n=8 each group), control, HMP-1bP (580 ug), and H1b-ADP (1.2 ug). Injections were performed using a total volume of 20 uL at days 6, 8, 10, 12, and 14 post inoculation. Tumor volumes were calculated every 2 days from caliper measurements of tumor dimension using the formula (L×W^2)/2, where L is the longer measurement.
To test whether H1b-ADP could augment an anti-tumor response by a checkpoint inhibitor, we tested the effects of co-administration with an anti-PD1 antibody. Tumor cells (2×10^5 per 100 μL CT26 cells) were inoculated subcutaneously into the left and right flanks of BALB/c mice. At day 7, mice whose tumors had reached 5 mm in diameter were randomized and grouped (n=8 each group) into the following four groups: anti-PD1 antibody; rat IgG; H1b-ADP+rat IgG; H1b-ADP+anti-PD1 antibody. We utilized RMP1-14 as the anti-PD1 antibody (10 mg/kg) and a rat IgG 2a (2A3) as the control IgG. Each of the anti-PD-1 antibody and the control IgG was administered intraperitoneally in a 200 μL volume on days 6, 10, 12, and 17 post-inoculation. H1b-ADP (6.2 μg) was intratumorally injected in a 20 μL volume at day 6, 8, 10, 12, and 15. Tumor volumes were calculated every 2 days from caliper measurements of tumor dimensions using the formula (L×W^2)/2, where L is the longer measurement. The results are shown in FIG. 13A for injected tumors and FIG. 13B for distant tumors. […]
The experiment was carried out as combo experiments of anti-PD1 except for the following variations. At day 6, mice whose tumors had reached 5 mm in diameter were randomized and grouped into the following four groups: c-di-AM(PS)2; PBS; H1b-ADP; H1b-ADP+c-di-AM(PS)2. We utilized c-di-AM(PS)2 as the STING agonist. Each of the c-di-AM(PS)2 (1 μg) and H1b-ADP (6.2 μg) was administered intratumorally in a 20 μL volume on days 6, 7, and 9 post-inoculation.
The experiment was carried out as combo experiments of anti-PD-1 except for the following variations. At day 6, mice whose tumors had reached 5 mm in diameter were randomized and grouped into the following four groups: anti-CD4 antibody (GK1.5 clone, BE0003-1, BioXcell); rat IgG; H1b-ADP+rat IgG; H1b-ADP+anti-CD4 antibody. Each of the anti-CD4 antibody (200 μg) and the control IgG (200 μg) was administered intraperitoneally in a 200 μL volume on days 3, 4, 8 post-inoculation. H1b-ADP (6.2 μg) was administered intratumorally in a 20 μL volume on days 6, 8, 10, 12, 14 post-inoculation.
The experiment was carried out as combo experiments of anti-PD-1 except for the following variations. At day 6, mice whose tumors had reached 5 mm in diameter were randomized and grouped into the following four groups: Resquimod; PBS; H1b-ADP; H1b-ADP+Resquimod. Resquimod (10 μg) and H1b-ADP (6.2 μg) were administered intratumorally in a 20 μL volume on days 6, 8, 11 post-inoculation.
We used a CT26 tumor xenograft model to test the anti-cancer activity of H1b-ADP derivative Compounds 1 and 2. Tumor cells (2×10^5 per 100 uL CT26 cells) were inoculated subcutaneously into the right flank of BALB/c mice. At day 7, mice whose tumors had reached 3-5 mm in diameter were randomized and grouped into three groups (n=9 each group), control, Compound 1 (50 nmol), and Compound 2 (50 nmol). Injections were performed using a total volume of 20 uL at days 7, 9, and 11 post inoculation. Tumor volumes were calculated every 2 days from caliper measurements of tumor dimension using the formula (L×W^2)/2, where L is the longer measurement.

**Q.** For `Nc1ncnc2c1ncn2[C@@H]1O[C@H](COP(=O)(O)OP(=O)(O)O[C@@H]2O[C@H]([C@H](O)CO)[C@@H](O)[C@H](O)[C@@H]2O)[C@@H](O)[C@H]1O` [Compound H1b-ADP, D-glycero-D-manno-heptose-1β-ADP], which tumor growth (Example 7: H1b-ADP 6.2 μg intratumoral, RMP1-14 10 mg/kg intraperitoneal) is on record?
**A.** markedly suppressed tumor growth

**Q.** What about the tumor growth (intratumoral, days 6, 8, 10, 12, 14, HMP-1bP 580 ug, H1b-ADP 1.2 ug) of the same compound?
**A.** reduced tumor growth
